The source of these data is article PMC9202104 (BMC Biology, 2022).

Data set [1] deals with ZIKV human strain FLR. In words: Plaque assay, inhibition of ZIKV infection (strain FLR). In kind it is cell-based. As to conditions: Zika virus, Vero C1008, read-out: IC50 FLR. The protocol: (§1) After removal of the unbound compounds by centrifugation (after addition of 3% PEG-6000), ZIKV was incubated with Vero E6 cells in 24-well plates at 37°C for 1 h. The cells were then washed with PBS, overlaid with DMEM containing 1% carboxymethyl cellulose and 2% FBS, and cultured at 37°C for 4–5 days, followed by being stained with 0.5% crystal violet. […] Plaques in each well were calculated, and IC50 of compounds for each compound was calculated using the CalcuSyn computer program.

Data set [2] deals with DENV-2 human strain V594. In words: DENV-2 challenge in Ifnar1−/− mice, flow cytometry titers. In kind it is in vivo. The following applies: C6/36 cells, flow cytometry, 3 dpi, 20 mg/kg i.p., representative image. The protocol:
Three days after infection, sera and tissues, including the brain, kidney, and heart, were collected and assessed for DENV infection using a flow cytometry assay, as described below. Tissues were freshly homogenized with cold culture medium (EMEM + 2% FBS) and centrifuged at 4°C and 2000 g for 10 min. Serially diluted tissue supernatants and sera were added to C6/36 cells, as described below. DENV titers in tissues or sera were assessed from ~20 mg of tissue samples, or 25 μl of sera, and used for subsequent flow cytometry analysis.
Flow cytometry assay was carried out to analyze DENV-2 titers in the supernatants of homogenized tissues and sera from DENV-2-infected mice collected above. Briefly, homogenized tissue supernatants or sera were added to C6/36 cells (5×10^5 cells/well) pre-seeded in 24-well plates which the culture medium was removed, and the cells were incubated for 1 h (28°C, 5% CO2). After incubation, the cells were washed with PBS, incubated with EMEM containing 2% FBS, and then cultured for 3 days as described above. After further removal of medium, the cells were digested, washed with PBS, and resuspended in FIX/PERM solution (Tonbo Biosciences, San Diego, CA, USA), followed by incubation at 4°C for 1 h in the dark. The cells were then sequentially incubated with mouse anti-flavivirus mAb 4G2 (2 μg/ml) at 37°C for 1 h and FITC-labeled anti-mouse IgG (0.5 mg/ml, BioLegend, San Diego, CA, USA) at 37°C for 30 min, followed by analysis using a FACScan flow cytometer and Summit software. Viral titers (infectious units/ml or infectious units/g) were calculated using the formula ((% of infected cells)×(total number of cells)×(dilution factor)/(amount of inoculum added to cells)).

The subject of data set [3] is ZIKV rhesus macaque strain MR 766. In words: Plaque assay, inhibition of ZIKV infection (strain MR 766). In kind it is cell-based. As to conditions: Zika virus, Vero C1008, read-out: IC50 MR 766. The protocol: as §1
The subject of data set [4] is ZIKV mosquito strain MEX 2-81. In words: Plaque assay, inhibition of ZIKV infection (strain MEX 2-81). In kind it is cell-based. As to conditions: Zika virus, Vero C1008, read-out: IC50 MEX 2-81. The method, then:
as §1

Data set [5] relates to DENV-2-V594. Kind of data set: Plaque assay, inhibition of DENV-2 infection in LLC-MK2 cells. In kind it is cell-based. As to conditions: Dengue virus, DENV2.
The subject of data set [6] is DENV-4-PR-06-65-740. Kind of data set: Plaque assay, inhibition of DENV-4 infection in LLC-MK2 cells. In kind it is cell-based. As to conditions: Dengue virus, DENV4.
Data set [7] deals with ZIKV human strain R103451. Kind of data set: Lethal ZIKV challenge in adult Ifnar1−/− mice, survival and weight. The following applies: ZIKV R103451 200 PFU. In kind it is in vivo. The protocol: (§2) Briefly, 7–8-week-old male mice were used, and two separate experiments were performed. […] These mice were i.p. infected with ZIKV (human strain R103451, 200 PFU/mouse) and observed daily for weight changes and survival until 21 dpi. […] Five days later, these mice were sacrificed, and their tissues, including the heart, testis, eye, kidney, and brain, were collected for detection of viral titers by plaque assay, or apoptosis by immunofluorescence staining. Mice losing 20% of initial weight with severe symptoms, including hind limb weakness and paralysis, or 25% of initial weight, were humanely euthanized with an overdose isoflurane in a Bell Jar, followed by cervical dislocation.

The test system of data set [8] is ZIKV human strain R103451. In words: Plaque assay, inhibition of ZIKV infection (strain R103451). As to conditions: Zika virus, Vero C1008, read-out: IC50 R103451. In kind it is cell-based. The method, then:
as §1

The subject of data set [9] is Vero E6 cells. In words: Cytotoxicity, Cell Counting Kit-8, Vero E6 cells. In kind it is cell-based. The following applies: African green monkey, 3 days. The method, then:
(§3) Briefly, compounds at 2-fold serial dilutions were added to the respective cells (2.0×10^4/well) pre-seeded in 96-well plates. The cells were cultured at 37°C in the presence of 5% CO2 for 3 days, […] incubated with CCK8 solution, followed by measurement of absorbance at 450 nm (A450 value), using a microplate reader (Infinite F200PRO, Tecan, Morrisville, NC, USA). CC50 of compounds was calculated using the CalcuSyn program.
(In general: Tetrazolium dyes change colour on reduction, which living cells bring about.)

The nature of data set [10]: Cytotoxicity, Cell Counting Kit-8, Vero E6 cells. In kind it is cell-based. As to conditions: African green monkey, CC50 Vero E6. The method, then: as §3
Data set [11] has as its system ZIKV human strain PAN2016 (2016/Panama). Kind of data set: Plaque assay, inhibition of ZIKV infection (strain PAN2016). The protocol:
as §1

Data set [12] in a line: in vitro. In kind it is cell-based. The following applies: rhesus monkey. The protocol:
as §3

In data set [13] the test system is ZIKV human strain PAN2016. Kind of data set: ZIKV challenge in adult Ifnar1−/− mice, tissue viral titers and immunofluorescence. In kind it is in vivo. As to conditions: 20 mg/kg i.p.; ZIKV PAN2016 200 PFU; 5 dpi; compared to DMSO-treated mice. The protocol: as §2
Plaque assay was used to detect viral titers in ZIKV-infected tissues. Briefly, tissues were homogenized with cold culture medium (DMEM + 2% FBS) and then centrifuged (2000 g at 4°C for 10 min). Supernatants were serially diluted to infect Vero E6 cells in 24-well plates. ZIKV titers in tissues were measured from ~40 mg of samples; thus, the detection limit was about 25 PFU/g of tissues.
Immunofluorescence staining was carried out to detect ZIKV and caspase-3 signals in ZIKV-infected mouse tissues. Briefly, tissues were fixed in 4% formaldehyde, embedded in paraffin, and sectioned. The tissue sections were deparaffinized, fixed, and permed using the FIX and PERM Cell Permeabilization Kit (Thermo Fisher Scientific, Waltham, MA, USA). After blocking with 5% BSA, the tissue slides were incubated at 37°C 2 h with ZIKV EDIII-specific human mAb (ZV-67, 1:100, Absolute Antibody, Boston, MA, USA), or rabbit anti-active caspase-3 antibody (1:100, Abcam). The slides were washed with PBS and incubated for 30 min with anti-human FITC antibody (1:100, for ZIKV), or anti-rabbit Alexa Fluor 647 antibody (1:100, for caspase-3). The slides were then counterstained for nuclei, using DAPI (300 nM, Thermo Fisher Scientific, Waltham, MA, USA) for 5 min, and mounted in VectaMount Permanent Mounting Medium (Vector Laboratories, CA, USA). The slides were analyzed using a confocal microscope (Zeiss LSM 880) and ZEN software, and fluorescent signals were quantified by ImageJ software.

In data set [14] the test system is DENV-3-V1043. In words: Plaque assay, inhibition of DENV-3 infection in LLC-MK2 cells. In kind it is cell-based. The following applies: Dengue virus, DENV3.
In data set [15] the test system is 8 human ZIKV strains (PAN2016, R116265, PAN2015, FLR, R103451, PRVABC59, PLCal_ZV, IbH 30656). In words: microbe, parasite or virus in culture. In kind it is cell-based. The following applies: Zika virus, read-out: Average IC50 (human strains). The protocol: as §1
Data set [16] deals with ZIKV human strain IbH 30656. In words: Plaque assay, inhibition of ZIKV infection (strain IbH 30656). In kind it is cell-based. The following applies: Zika virus, Vero C1008, read-out: IC50 IbH 30656. The protocol: as §1
Data set [17] relates to ZIKV human strain PLCal_ZV. In words: Plaque assay, inhibition of ZIKV infection (strain PLCal_ZV). The following applies: Zika virus, Vero C1008, read-out: IC50 PLCal_ZV. In kind it is cell-based. The protocol:
as §1

Data set [18] has as its system DENV-1-V1792. In words: Plaque assay, inhibition of DENV-1 infection in LLC-MK2 cells. In kind it is cell-based. The following applies: Dengue virus, DENV1.
Data set [19] has as its system ZIKV human strain PRVABC59. Kind of data set: Plaque assay, inhibition of ZIKV infection (strain PRVABC59). The following applies: Zika virus, Vero C1008, read-out: IC50 PRVABC59. In kind it is cell-based. The method, then: as §1

Structures are written as SMILES. Read-outs that look alike come from different tables or passages of the source.

For `Cc1cc2c(C(C)C)c(O)c(O)c(C=O)c2c(O)c1-c1c(C)cc2c(C(C)C)c(O)c(O)c(C=O)c2c1O` [Gossypol, reference compound], the IC50 (as a rule, the concentration needed to halve the response being measured) in data set [1] turned out to be 0.7 µM; in data set [3], 4.1 µM; in data set [4], 2.9 µM; in data set [5], 1.91 ± 0.01 µM; in data set [6] it was 2.83 ± 0.07 µM; in [8], 3.1 µM. Moreover, the 50% inhibitory concentration (IC50) is 3.8 µM in [11] (Zika virus, Vero C1008, in Homo sapiens, read-out: IC50 against infection of ZIKV PAN2016, plaque assay, Vero E6 cells); 3.78 ± 0.3 µM in [11] (read-out: IC50 against infection of ZIKV PAN2016, plaque assay, Vero E6 cells); 3.42 ± 0.11 µM in data set [14]; 3.4 µM in data set [15]; 3.4 µM in data set [16]; 2.9 µM in data set [17]. Further, the half-inhibitory concentration (IC50) in data set [18] stood at 2.06 ± 0.13 µM; in data set [19] it was 4.6 µM. For the same molecule, the “DENV-2 in brain, percentage of infected cells” value in [2] is 3.6%. For the same molecule, the “DENV-2 in heart, percentage of infected cells” value in data set [2] stood at 3.8%. The “DENV-2 in kidney, percentage of infected cells” value in [2] turned out to be 4.1%. Moreover, the “DENV-2 in sera, percentage of infected cells” value in data set [2] was 50.9%. Moreover, the “Mice protected from death (survival)” value in [7] (20 mg/kg i.p. 12 h before and 6, 24, 48 h post-infection, observed 21 days) is “no mice treated with gossypol survived at 6 dpi”. In [7] (20 mg/kg i.p., ST087010 figure during 6–12 dpi), the Weight loss entry is listed as “increased weight loss”. Further, the midpoint of cytotoxicity in [9], the CC50, lay at 14.49 ± 0.07 µM. In addition, the figures for the CC50 at 3 days in [10] and in [12] were 14.5 µM and 19.1 ± 1.09 µM, respectively. In data set [13], the “Viral titers in the heart, kidney, and brain” value is “significantly higher”.
